Tests used:
carboxypeptidase B = target: T1, carboxypeptidase B (Homo sapiens, UniProt Q96IY4); experiment: Inhibitory activity against carboxypeptidase B (activated pro-CPB partially purified from human plasma, Hip-Arg substrate); assay type: biochemical; details: tested substance 500 nM, 25° C. for 60 minutes, absorbance at 405 nm; for inhibition at 0.5 µM: read-out: Carboxypeptidase B inhibitory rates by tested substance at 500 nM
T1 construct: from tissue; host or cells: human plasma (citrated)
T1 sequence (Q96IY4 115-423): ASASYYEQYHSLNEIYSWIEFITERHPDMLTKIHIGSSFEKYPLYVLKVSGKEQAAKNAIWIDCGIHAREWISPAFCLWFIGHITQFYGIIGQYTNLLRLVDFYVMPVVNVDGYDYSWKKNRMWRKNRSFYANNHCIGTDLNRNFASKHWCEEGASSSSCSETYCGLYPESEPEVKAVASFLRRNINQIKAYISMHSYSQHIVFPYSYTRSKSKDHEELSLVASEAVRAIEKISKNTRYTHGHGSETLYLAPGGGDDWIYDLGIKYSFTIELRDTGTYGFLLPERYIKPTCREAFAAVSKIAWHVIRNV
Experimental: Inhibitory activity of the compounds of the present invention against carboxypeptidase B was measured as follows according to the method described in Thromb. Haemost. 371(1998).
(a) Partial Purification of Carboxypeptidase B Precursor (pro-CPB) from Human Plasma
Human plasma collected over citric acid was added with 80 mM barium chloride and treated at 4° C. for 30 minutes. The supernatant obtained by centrifugation at 10,000 rpm for 20 minutes was dialyzed against 20 mM HEPES buffer containing 0.15 M sodium chloride (pH 7.4). Furthermore, protein in the fractions obtained with 30% to 80% ammonium sulfate were partially purified by chromatography using a Q-Sepharose column (elution with 50 mM tris-HCl buffer (pH 7.4) gradually containing sodium chloride to 0.5 M).
(b) Activation of pro-CPB
pro-CPB (20 μl) was added with 20 μl of a thrombomodulin solution (Thrombomodulin derived from rabbit lung, American Diagnostia Inc., Product No. #237, dissolved at concentration of 300 ng/ml in buffer A as 50 mM tris-HCl buffer (pH 7.4) supplemented with 0.1% Lubrol, 0.1% BSA and 0.15 M sodium chloride), and treated at 25° C. for 3 minutes. Then, the mixture was added with 20 μl of thrombin (Thrombin derived from human plasma, Sigma, Product No. T8885, dissolved at concentration of 3 u/ml in buffer B as 50 mM Tris-HCl buffer (pH 7.4) supplemented with 0.1% BSA, 0.15 M NaCl and 10 mM calcium chloride) and further treated at 25° C. for 30 minutes for activation(*1).
(c) Measurement of CPB Inhibitory Activity
By using a microplate, 4 μl of the sample was added with a mixed solution of 41 μl of buffer C (0.1 M tris-HCl buffer (pH 7.6)) and 25 μl of a substrate solution (Hip-Arg, Sigma, H2508, dissolved in buffer C at concentration of 4 mM.), and further added with 10 μl of the activated CPB solution (*1), and then the mixture was well mixed and allowed to react at 25° C. for 60 minutes. Then, 100 μl of 0.2 M PIPES buffer (pH 7.5) containing 12.5% Tween was added to the mixture to stop the reaction. After 5 minutes, the mixture was added with 100 μl of a coloring solution (2-methoxyethanol containing 1% cyanuryl chloride) and allowed to stand at room temperature for 15 minutes, and then absorbance was measured at 405 nm by using a microplate reader (Bio Rad Model 3550).
Inhibitory activity against carboxypeptidase B was calculated by using the following equation as an inhibitory rate, wherein A represents absorbance in the absence of a tested substance; B represents absorbance in the presence of a tested substance (500 nM); A′ and B′ represent the aforementioned absorbances obtained by using non-activated enzyme without and with the tested substance, respectively.
Inhibitory rate (%)=[1−{(B-B′)/(A-A′)}]×100
The results of the carboxypeptidase B inhibitory rates are shown in Table 1, which were calculated by using the above equation and the results of the measurements in the above experiments for the compounds of the present invention.

ICR male mice = experiment: Toxicity test by single administration; assay type: in vivo; details: single intravenous administration in saline, dose of 1 g/kg, ICR male mice of 5 weeks old
Experimental: Toxicity Test Example by Single Administration
The compound of Example 19 of the present invention was dissolved in saline intravenously administered to 6 individuals of ICR male mice of 5 weeks old.

inhibition at 0.5 µM (carboxypeptidase B) | SMILES | other results
> 90% | NCCCC[C@H](OP(=O)(O)C(NC(=O)CCc1ccccc1)C1CCC1)C(=O)O (stereo partly drawn) [Example 10, (S)-6-Amino-2-((1-cyclobutyl-1-(3-phenylpropanoylamino)methyl)(hydroxyphosphinoyl)oxy)hexanoic acid] | –
30% | C[C@H](NC(=O)OCc1ccccc1)P(=O)(O)O[C@@H](CCCCN)C(=O)O [Example 1, (S)-6-Amino-2-(((R)-1-(benzyloxycarbonylamino)ethyl)(hydroxyphosphinoyl)oxy)hexanoic acid] | –
> 90% | NCCCCC(OP(=O)(O)C(NC(=O)CCc1ccccc1)C1CC1)C(=O)O [Example 6, (S)-6-Amino-2-((1-cyclopropyl(3-phenylpropanoylamino)methyl)(hydroxyphosphinoyl)oxy)hexanoic acid] | –
30% | NCCCCC(OP(=O)(O)C(CCCN)NC(=O)CCc1ccccc1)C(=O)O [Example 40, (S)-6-Amino-2-((4-amino-1-(3-phenylpropanoylamino)butyl)(hydroxyphosphinoyl)oxy)hexanoic acid] | –
> 90% | CCC(CC)C(NC(=O)CCc1ccccc1)P(=O)(O)OC(CCCCN)C(=O)O [Example 3, (S)-6-Amino-2-((2-ethyl-1-(3-phenylpropanoylamino)butyl)(hydroxyphosphinoyl)oxy)hexanoic acid] | –
> 90% | NCCCCC(OP(=O)(O)C(NC(=O)CCc1ccccc1)C1CCCCC1)C(=O)O [Example 9, (S)-6-Amino-2-((1-cyclohexyl-1-(3-phenylpropanoylamino)methyl)(hydroxyphosphinoyl)oxy)hexanoic acid] | –
30% | NCCCC[C@H](OP(=O)(O)CNC(=O)CCc1ccccc1)C(=O)O [Example 5, (S)-6-Amino-2-(((3-phenylpropanoylamino)methyl)(hydroxyphosphinoyl)oxy)hexanoic acid] | –
> 90% | NCCCC[C@H](OP(=O)(O)C1(NC(=O)CCc2ccccc2)CCCC1)C(=O)O [Example 20, (S)-6-Amino-2-((1-(3-phenylpropanoylamino)cyclopentyl)(hydroxyphosphinoyl)oxy)hexanoic acid] | –
> 90% | CCC(NC(=O)CCc1ccccc1)P(=O)(O)OC(CCCCN)C(=O)O [Example 16, (S)-6-Amino-2-((1-(3-phenylpropanoylamino)propyl)(hydroxyphosphinoyl)oxy)hexanoic acid] | –
> 90% | NCCCCC(OP(=O)(O)C(NC(=O)CCc1ccccc1)C1CCOCC1)C(=O)O [Example 35, (S)-6-Amino-2-((1-(3-phenylpropanoylamino)-1-(tetrahydropyran-4-yl)methyl)(hydroxyphosphinoyl)oxy)bexanoic acid] | –
40% | NCCCCC(OP(=O)(O)C(NC(=O)CCc1ccccc1)c1ccccc1)C(=O)O [Example 34, (S)-6-Amino-2-((1-phenyl-1-(3-phenylpropanoylamino)methyl)(hydroxyphosphinoyl)oxy)hexanoic acid] | –
80% | NCCCCC(OP(=O)(O)C(CCC(F)(F)F)NC(=O)CCc1ccccc1)C(=O)O [Example 25, (S)-6-Amino-2-((4,4,4-trifluoro-1-(3-phenylpropanoylamino)butyl)(hydroxyphosphinoyl)oxy)hexanoic acid] | –
> 90% | CC(C)C(NC(=O)CCCc1ccccc1)P(=O)(O)OC(CCCCN)C(=O)O [Example 24, (S)-6-Amino-2-(2-methyl-1-(4-phenylbutanoylamino)propyl(hydroxyphosphinoyl)oxy)hexanoic acid] | –
– | CC(C)C(NC(=O)CCc1ccccc1)P(=O)(O)OC(CCCCN)C(=O)O [Example 2, (S)-6-Amino-2-((2-methyl-1-(3-phenylpropanoylamino)propyl)(hydroxyphosphinoyl)oxy)hexanoic acid] | Carboxypeptidase B inhibitory rates by tested substance at 500 nM (carboxypeptidase B): >90%
> 90% | NCCCC[C@H](OP(=O)(O)C1(NC(=O)CCc2ccccc2)CCCCC1)C(=O)O [Example 14, (S)-6-Amino-2-((1-(3-phenylpropanoylamino)cyclohexyl)(hydroxyphosphinoyl)oxy)hexanoic acid] | –
> 90% | CC1CCC(C(NC(=O)CCc2ccccc2)P(=O)(O)OC(CCCCN)C(=O)O)CC1 [Example 41, (S)-6-Amino-2-((1-(4-methylcyclohexyl)-1-(3-phenylpropanoylamino)methyl)(hydroxyphosphinoyl)oxy)hexanoic acid] | –
> 90% | CCCC(NC(=O)CCc1ccccc1)P(=O)(O)OC(CCCCN)C(=O)O [Example 8, (S)-6-Amino-2-((1-(3-phenylpropanoylamino)butyl)(hydroxyphosphinoyl)oxy)hexanoic acid] | –
> 90% | CC(C)CC(NC(=O)CCc1ccccc1)P(=O)(O)OC(CCCCN)C(=O)O [Example 12, (S)-6-Amino-2-((3-methyl-1-(3-phenylpropanoylamino)butyl)(hydroxyphosphinoyl)oxy)hexanoic acid] | –
> 90% | NCCCCC(OP(=O)(O)C(NC(=O)CCc1ccccc1)C1CCNCC1)C(=O)O [Example 39, (S)-6-Amino-2-((1-(piperidin-4-yl)-1-(3-phenylpropanoylamino)methyl)(hydroxyphosphinoyl)oxy)hexanoic acid] | –
50% | CC(C)(C)CC(NC(=O)CCc1ccccc1)P(=O)(O)OC(CCCCN)C(=O)O [Example 23, (S)-6-Amino-2-((3,3-dimethyl-1-(3-phenylpropanoylamino)butyl)(hydroxyphosphinoyl)oxy)hexanoic acid] | –
70% | NCCCCC(OP(=O)(O)C(CO)NC(=O)CCc1ccccc1)C(=O)O [Example 37, (S)-6-Amino-2-((2-hydroxy-1-(3-phenylpropanoylamino)ethyl)(hydroxyphosphinoyl)oxy)hexanoic acid] | –
> 90% | CC(NC(=O)CCc1ccccc1)P(=O)(O)OC(CCCCN)C(=O)O [Example 4, (S)-6-Amino-2-((1-(3-phenylpropanoylamino)ethyl)(hydroxyphosphinoyl)oxy)hexanoic acid] | –

SMILES | inhibition at 0.5 µM (carboxypeptidase B) | other results
CC(C)C(NC(=O)CCc1ccccc1)P(=O)(O)OC(CCCCN)C(=O)O [Example 19, (S)-6-Amino-2-((2-methyl-(1R)-(3-phenylpropanoylamino)propyl)(hydroxyphosphinoyl)oxy)hexanoic acid] | > 90% | death of the mice or severe toxicity (ICR male mice): no death of the mice or severe toxicity was observed
